The values that follow come from paper PMC4623604, “Discovery of Small Molecules that Inhibit the Disordered Protein, p27^Kip1” (Scientific Reports, 2015).

Structures are written as SMILES.

Experiment [1] addresses T1, p27-KID (Homo sapiens, UniProt P46527).
T1 construct: 6xHis (N, cleaved yes); made in house; host or cells: E. coli (pET28a)
The experiment can be described thus: NMR 2D 1H-15N in-phase HSQC titration, binding affinity for p27:small molecule interactions. The note with it: sixteen-point titration, 100 μM 15N-p27-KID, inhibitor 0-3 mM. As for the experimental part:
1D and 2D NMR analysis of these molecules led to the identification of 15 additional p27-D2-binding compounds (six with Group 1-like binding features and nine with Group 2-like features; Suppl. Fig. 3b and Suppl. Table 1b).
Sixteen point titrations of representative fragment hits from Group 1 and Group 2 (SJ572710 and SJ572403, respectively) into ^15N-p27-KID (100 μM) were recorded using an adopted “in-phase” 2D ^1H-^15N HISQC with proton decoupling during ^15N chemical shift labeling achieved with a WALTZ16 composite pulse with an amplitude of 7.1 kHz[54][55]. All experiments were collected at a Bruker Avance 800 MHz spectrometer equipped with TCI cryogenic gradient probe. The following molar ratios of ^15N-p27-KID (100 μM) to inhibitor were used: 1:0, 1:0.1, 1:1.5, 1:3, 1:4.5, 1:6, 1:7.5, 1:9, 1:10.5, 1:12, 1:15, 1:18, 1:21, 1:24, 1:27 and 1:30. Each spectrum was recorded with 256 (t1,max = 31.0 ms) and 1024 (t2,max = 106.5 ms) complex points in the ^15N and ^1H dimensions, respectively, with eight transients collected per point. The spectral resolution of the ^1H and ^15N dimensions was 2.4 and 1.7 Hz, respectively. […] The data was processed using the NMRPipe package[56] and analyzed using in-house scripts written in Python using the Scipy computing libraries and Mathematica (Wolfram Research). […]

Experiment [2] deals with T1, p27-KID. The experiment can be described thus: NMR fragment screening and 2D 1H-15N HSQC chemical shift perturbation mapping. The class given is binding. Also noted: key to Binding Group (site of chemical shift perturbations in p27-KID): Molecules in Group 1 bound to a localized region, F87YY89; molecules in Group 2 bound to this region as well as two others containing two W residues (W60 and W76). The settings on record: 2D 1H-15N HSQC, 100 μM 15N-p27-KID. The source says:
We used one-dimensional (1D) ^1H WaterLOGSY[35] and STD[36] […] Fragment molecules were selected from either a commercial library (1,100 compounds from the Ro3 collection, Maybridge/Thermo Fisher Scientific) or an in-house library of 1,222 compounds based on the “Rule of Three”[40] and other criteria (see Methods). […] Binding sites for these compounds were identified by titration into ^15N-p27-KID and analysis of two-dimensional (2D) ^1H-^15N HSQC spectra. […] We termed these molecules Groups 1 and 2, respectively (Fig. 1b,c); representative ^1H CSP histograms are shown in Fig. 1d,e, and ^15N CSPs are presented in Suppl. Fig. 2. Data for all other small molecules are shown in Suppl. Fig. 3.
Screening and validation NMR experiments were performed at 298 K (25 °C) using either a Varian Inova 600 MHz spectrometer equipped with a triple resonance (HCN) room temperature gradient probe or a Bruker Avance 600 MHz spectrometer equipped with TCI cryogenic gradient probe and a SampleJet sample changer. Fragment molecules were initially analyzed as pools of five molecules dissolved at 10 mM each in DMSO-D6. […] For initial fragment screening experiments, one-dimensional (1D) ^1H- and WaterLOGSY[35] NMR spectra were recorded for compound pools without and with protein. […] DMSO-D6 was added to maintain a constant concentration (2% vol/vol). […] Tryptophan and tyrosine, respectively, were titrated into ^15N-p27-KID (100 μM) up to 3 mM. Three-dimensional (3D) backbone triple-resonance experiments to establish resonance assignments for the p27 constructs were performed using the Bruker Avance 600 MHz spectrometer. […] Fig. 12b,c and d,e, respectively. 2D ^1H-^15N TROSY-HSQC NMR experiments with ^2H/^13C/^15N-p27-D2/Cdk2/cyclin A and SJ403 have been recorded at 308 K (35 °C). 2D ^1H-^15N HSQC experiments of representative fragment hits (1 mM of SJ319843, group 1 and SJ403, group 2, respectively) with ^15N-p21-KID (20 μM) were recorded at 298 K using a Bruker Avance 600 MHz spectrometer. NMR spectra were processed using Bruker Topspin software and analyzed using computer-aided resonance assignment (CARA) software.
Chemical shift perturbations are generally quantified as combined ^1H and ^15N chemical shift values. […] Thus, the use of a combined chemical shift values would mask the effects of compound binding. […] Thus, the assessment of statistical significance was based upon whether a particular CSP value was larger than, i) the experimental spectral resolution in the given dimension (^1H or ^15N) and ii) the quantity, Δδave + 2σ, for that dimension.

T1 sequence (P46527 22-105): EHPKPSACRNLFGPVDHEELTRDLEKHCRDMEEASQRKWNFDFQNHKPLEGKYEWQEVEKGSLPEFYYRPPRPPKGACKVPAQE

As a reminder, the Kd is the constant that tells how readily two partners part at equilibrium. Consider `CCn1c(C)c(C)n2c3c(=O)n(C)c(=O)n(C)c3nc12` [SJ403], for which the dissociation constant Kd in experiment [1] is 2200 ± 300 µM. Besides, in experiment [2], the “Binding Group (site of chemical shift perturbations in p27-KID)” value was “Group 2”.
